Results published in US6455593B1, “Method of dynamic retardation of cell cycle kinetics to potentiate cell damage” (priority 1995, dated 2002).

Experiments:
Assay in all cases: Induction of apoptosis by DEET
Assay type in all cases: cell-based, human
Jurkat T cells = system: Jurkat T cells
U937 cells = system: U937 cells
Daudi B cells = system: Daudi B cells

Measured: Concentration inducing apoptosis

CCN(CC)C(=O)c1cccc(C)c1 [DEET, N,N-Diethyl-m-toluamide]
above 0.5 mM: all assays above
